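Method: 48-hour compound exposure of cells in 96-well plates, five concentrations, linear interpolation of endpoints. GI50 = concentration required for 50% inhibition of growth. TGI is the concentration that stops growth completely.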
Tests used:
Assay in all cases: NCI-60 cell line screen, 48 h
[1] = test system: U251 CNS
[2] = test system: A549 NSCLC
[3] = test system: NCI-H460 lung
[4] = test system: MDA-MB-231 breast
[5] = test system: SW-620 colon
[6] = test system: A498 renal
[7] = test system: SR leukemia
[8] = test system: RPMI-8226 leukemia
[9] = test system: NCI-H226 lung
[10] = test system: CCRF-CEM leukemia

C[C@H]1C[C@H]2[C@@H]3C(C)(C)O[C@]4(O)C(=O)[C@]5(O)[C@@H](C)CC[C@H]1[C@]25C(=O)[C@]34C
TGI [1]: > 100 µM
TGI [2]: > 100 µM
TGI [3]: > 100 µM
TGI [4]: > 100 µM
TGI [5]: > 100 µM
TGI [6]: 87 µM
TGI [7]: 96.6 µM
TGI [8]: 45.8 µM
TGI [9]: 98.2 µM
TGI [10]: > 100 µM

c1ccc2c(c1)CCc1c-2n(CCN2CCOCC2)c2ccccc12
TGI [1]: > 100 µM
TGI [2]: > 100 µM
TGI [3]: 92.9 µM
TGI [4]: > 100 µM
TGI [5]: > 100 µM
TGI [7]: 38.3 µM
TGI [8]: > 100 µM
TGI [9]: > 100 µM
TGI [10]: 61.5 µM

CC(=O)Oc1c2oc3ccc(Cl)cc3c(=O)c2c(O)c2ccsc12
TGI [1]: > 100 µM
TGI [2]: > 100 µM
TGI [3]: > 100 µM
TGI [4]: > 100 µM
TGI [5]: > 100 µM
TGI [6]: > 100 µM
TGI [8]: > 100 µM
TGI [9]: > 100 µM
TGI [10]: > 100 µM

COc1c(O)cc(O)c2c(=O)cc(-c3ccccc3)oc12
TGI [1]: > 100 µM
TGI [2]: > 100 µM
TGI [3]: > 100 µM
TGI [4]: > 100 µM
TGI [5]: > 100 µM
TGI [7]: > 100 µM
TGI [8]: 37.1 µM
TGI [9]: > 100 µM
TGI [10]: > 100 µM

O=c1cc(N2CCN(c3cc(=O)n4ccccc4n3)CC2)oc2ccccc12
TGI [1]: > 100 µM
TGI [2]: > 87.8 µM
TGI [3]: > 100 µM
TGI [4]: > 100 µM
TGI [5]: > 100 µM
TGI [6]: > 100 µM
TGI [8]: 90.5 µM
TGI [9]: > 100 µM
TGI [10]: > 100 µM

O=c1oc2ccccc2cc1-c1cn2cc(Cl)ccc2n1
TGI [1]: 13.9 µM
TGI [2]: 16.8 µM
TGI [3]: 13.6 µM
TGI [4]: 23.1 µM
TGI [5]: 31.7 µM
TGI [7]: > 39.2 µM
TGI [8]: 59.7 µM
TGI [9]: > 57.3 µM
TGI [10]: > 100 µM

COC(=O)c1c(OC(C)=O)ccc2c1c1c(n2C)C(=O)c2ccccc2C1=O
TGI [1]: > 100 µM
TGI [2]: 80.8 µM
TGI [3]: > 100 µM
TGI [4]: > 100 µM
TGI [6]: 41.7 µM
TGI [7]: > 100 µM
TGI [8]: 28 µM
TGI [9]: > 100 µM

COC(=O)C(CSSC[C@H](N/C(C)=C/C(C)=O)C(=O)OC)N/C(C)=C/C(C)=O (some centres undefined)
TGI [1]: > 100 µM
TGI [2]: > 100 µM
TGI [3]: > 100 µM
TGI [4]: > 100 µM
TGI [5]: > 100 µM
TGI [6]: > 100 µM
TGI [8]: 63.5 µM
TGI [9]: > 100 µM
TGI [10]: 71.5 µM

Cc1c(NC(=O)CSC(=S)N2CCN(Cc3ccccc3)CC2)c(=O)n(-c2ccccc2)n1C
TGI [1]: > 100 µM
TGI [2]: > 100 µM
TGI [3]: > 100 µM
TGI [4]: > 100 µM
TGI [5]: > 100 µM
TGI [7]: > 100 µM
TGI [8]: > 100 µM
TGI [9]: > 100 µM
TGI [10]: > 100 µM

CCOc1cc(C2CC(c3ccc(NS(=O)(=O)c4cc([N+](=O)[O-])ccc4C)cc3)=NN2c2ccc([N+](=O)[O-])cc2[N+](=O)[O-])ccc1O (centres undefined)
TGI [1]: 29.2 µM
TGI [2]: 28.1 µM
TGI [4]: 20.6 µM
TGI [5]: > 100 µM
TGI [7]: > 100 µM
TGI [8]: > 100 µM
TGI [9]: 24 µM
TGI [10]: > 100 µM

O=C1C(=O)c2ccccc2C(O)=C1CCCc1ccc(Oc2ccccc2)cc1
TGI [1]: > 100 µM
TGI [3]: 41.9 µM
TGI [5]: > 100 µM
TGI [6]: 90.5 µM
TGI [7]: > 100 µM
TGI [8]: > 100 µM
TGI [9]: 47.9 µM
TGI [10]: > 100 µM

CC1(C)CC(C)(C)C1=NNC(N)=O
TGI [1]: > 100 µM
TGI [2]: > 100 µM
TGI [3]: > 100 µM
TGI [4]: > 100 µM
TGI [5]: > 100 µM
TGI [6]: > 100 µM
TGI [7]: > 100 µM
TGI [9]: > 100 µM
TGI [10]: > 100 µM

COc1ccc(C(=O)/C=C/c2c(Cl)c3c(c(OC)c2Cl)OCC(=O)N3)cc1
GI50 [2]: 3.61 µM
TGI [2]: > 100 µM
GI50 [5]: 1.81 µM
TGI [5]: 3.66 µM
GI50 [6]: 3.07 µM
TGI [6]: 37.2 µM
GI50 [7]: 1.15 µM
TGI [7]: 7.45 µM
GI50 [8]: 1.07 µM
TGI [8]: 4.07 µM
GI50 [9]: 7.08 µM
TGI [9]: > 100 µM
GI50 [10]: 1.87 µM
TGI [10]: 8.44 µM

COc1ccc2c(c1)c(CC(=O)O)c(C)n2C(=O)c1ccc(Cl)cc1
TGI [1]: > 100 µM
TGI [2]: > 100 µM
TGI [3]: > 100 µM
TGI [4]: > 100 µM
TGI [5]: > 100 µM
TGI [7]: > 100 µM
TGI [8]: > 100 µM
TGI [9]: > 100 µM
TGI [10]: > 100 µM

CC1CC/C(=C\c2ccc(Cl)cc2)C2OC(N)=C(C#N)C(c3ccc(Cl)cc3)=C12 (centres undefined)
TGI [1]: 30.6 µM
TGI [4]: 23.7 µM
TGI [5]: 89 µM
TGI [8]: 29.2 µM
TGI [9]: 27.1 µM
TGI [10]: 31.2 µM

COc1cc(C(C)c2cc3c(cc2OCCO)OCO3)cc(OC)c1OC (centres undefined)
TGI [1]: > 100 µM
TGI [2]: > 100 µM
TGI [3]: > 100 µM
TGI [5]: > 100 µM
TGI [7]: 0.932 µM
TGI [8]: > 100 µM
TGI [9]: > 100 µM
TGI [10]: > 100 µM

CCOC(=O)Cc1cc(OC)c(OC)cc1/C(Cl)=C(\C=O)c1ccc(OC)c(OC)c1
TGI [1]: 33.1 µM
TGI [2]: 57.1 µM
TGI [3]: 17.9 µM
TGI [5]: 57 µM
TGI [8]: 43.1 µM

N#Cc1c(-c2ccc(Cl)cc2)c2c(n(C3OC(CO)C(O)C(O)C3O)c1=S)CCC2 (centres undefined)
TGI [1]: 84.9 µM
TGI [2]: > 100 µM
TGI [3]: > 100 µM
TGI [4]: > 100 µM
TGI [5]: 58.4 µM
TGI [7]: > 100 µM
TGI [8]: > 100 µM
TGI [10]: 56.7 µM

O=C(Cn1c(C(=O)/C=C/c2cccs2)nc2ccccc21)c1ccc(Cl)cc1
TGI [1]: 30.3 µM
TGI [2]: > 100 µM
TGI [3]: 25.8 µM
TGI [4]: 46 µM
TGI [5]: > 100 µM
TGI [6]: 57.9 µM
TGI [7]: 22 µM
TGI [8]: 29.3 µM
TGI [9]: > 100 µM

CC1(C)[C@H]2CC[C@]1(C)[C@H](OC(=O)NNC(=O)O[C@@H]1C[C@@H]3CC[C@@]1(C)C3(C)C)C2
TGI [1]: 62.9 µM
TGI [2]: 25.1 µM
TGI [3]: 28.6 µM
TGI [4]: 27.6 µM
TGI [5]: 72.9 µM
TGI [6]: 33.8 µM
TGI [8]: 30.7 µM
TGI [9]: 34.1 µM
TGI [10]: 76.6 µM

O=C1c2cc3c(cc2CC12Cc1ccc4c(c1C2=O)CCCC4)CCCC3 (centres undefined)
TGI [1]: 60.5 µM
TGI [2]: > 100 µM
TGI [3]: > 100 µM
TGI [4]: > 100 µM
TGI [5]: > 100 µM
TGI [6]: 59.7 µM
TGI [7]: > 100 µM
TGI [8]: > 100 µM
TGI [10]: > 100 µM

O=c1c2cc(I)ccc2nc(-c2cccs2)n1-c1ccc(O)cc1
TGI [1]: 48.5 µM
TGI [2]: 27.4 µM
TGI [3]: 52.6 µM
TGI [5]: 69.6 µM
TGI [7]: > 100 µM
TGI [8]: 18.3 µM
TGI [9]: 35.9 µM

COc1ccc(C(SC2C(O)C(CO)OC2n2ccc(N)nc2=O)(c2ccccc2)c2ccc(OC)cc2)cc1 (centres undefined)
TGI [1]: 33 µM
TGI [2]: 54.2 µM
TGI [3]: 27.2 µM
TGI [4]: 30.8 µM
TGI [5]: > 100 µM
TGI [7]: 58 µM
TGI [8]: 59.3 µM
TGI [9]: 28.3 µM
TGI [10]: > 100 µM

Source: PubChem BioAssay (NCI)
